Test results: patent publication US11427548B2 (Arvinas Operations, Inc., priority 2015, dated 2022)
Read-outs that look alike come from different tables or passages of the source.

Biological target: T1, Androgen Receptor (Homo sapiens, UniProt P10275)
T1 construct: endogenous in cells; host or cells: VCaP cells
T1 sequence (P10275 1-920): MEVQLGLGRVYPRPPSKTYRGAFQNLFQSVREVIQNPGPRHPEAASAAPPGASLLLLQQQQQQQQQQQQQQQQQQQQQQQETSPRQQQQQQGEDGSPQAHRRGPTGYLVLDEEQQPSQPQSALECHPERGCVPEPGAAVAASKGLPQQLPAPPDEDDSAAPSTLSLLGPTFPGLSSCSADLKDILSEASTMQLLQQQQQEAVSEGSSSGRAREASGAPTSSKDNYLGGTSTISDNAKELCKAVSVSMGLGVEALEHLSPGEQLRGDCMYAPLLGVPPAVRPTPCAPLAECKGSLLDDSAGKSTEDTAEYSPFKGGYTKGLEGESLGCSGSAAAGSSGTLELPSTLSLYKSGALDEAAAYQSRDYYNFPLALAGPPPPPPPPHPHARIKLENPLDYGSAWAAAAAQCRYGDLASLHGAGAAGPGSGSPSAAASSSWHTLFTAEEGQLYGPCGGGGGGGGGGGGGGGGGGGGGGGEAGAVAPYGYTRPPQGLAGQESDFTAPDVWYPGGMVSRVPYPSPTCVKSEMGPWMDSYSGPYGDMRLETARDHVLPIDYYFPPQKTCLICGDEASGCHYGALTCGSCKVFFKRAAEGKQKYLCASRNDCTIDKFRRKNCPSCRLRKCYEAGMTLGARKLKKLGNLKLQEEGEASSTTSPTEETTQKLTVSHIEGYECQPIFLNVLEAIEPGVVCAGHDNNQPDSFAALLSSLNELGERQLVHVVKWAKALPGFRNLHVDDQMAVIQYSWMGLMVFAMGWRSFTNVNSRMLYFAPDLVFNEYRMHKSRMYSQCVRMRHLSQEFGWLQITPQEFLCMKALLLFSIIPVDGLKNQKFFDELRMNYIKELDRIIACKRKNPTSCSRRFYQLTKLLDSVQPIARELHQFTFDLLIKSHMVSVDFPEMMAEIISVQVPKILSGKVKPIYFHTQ
Test: Androgen Receptor ELISA assay (PathScan AR ELISA) in VCaP cells: AR degradation, Dmax and DC50
Format: cell-based
Conditions: for DC50: read-out: VCaP DC50; for Dmax: VCaP
Summary of the method: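 After 24 h exposure of VCaP cells (charcoal-stripped serum, 0.1 nM R1881 agonist, 0.1% DMSO) to seven half-log compound concentrations, residual AR in lysates was measured by PathScan ELISA (TMB absorbance, 450 nm). Cells were plated at 30,000/well and grown at least 3 days beforehand.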

[1] = VCaP cells, Table 36, read-out: VCaP Dmax (%)
[2] = read-out: VCaP Dmax (%), VCaP cells, Table 36

| DC50 (VCaP cells, Table 36) [nM] | Dmax [1] [%] | Dmax [2] [%] | Structure (SMILES) | Dmax (read-out: VCaP Dmax (%)) [%] |
| --- | --- | --- | --- | --- |
| < 50 | > 71 | – | Cc1ncsc1-c1ccc([C@H](C)NC(=O)C2C[C@@H](O)CN2C(=O)[C@@H](NC(=O)CCCCCCc2ccc(C(=O)N[C@H]3C(C)(C)[C@H](Oc4ccc(C#N)c(Cl)c4)C3(C)C)cc2)C(C)(C)C)cc1 (stereo partly drawn) [Example 749, (2S,4R)-1-((S)-2-(7-(4-(((1r,3r)-3-(3-chloro-4-cyanophenoxy)-2,2,4,4-tetramethylcyclobutyl)carbamoyl)phenyl)heptan-amido)-3,3-dimethylbutanoyl)-4-hydroxy-N-((S)-1-(4-(4-methylthiazol-5-yl)phenyl)ethyl)pyrrolidine-2-carboxamide] | – |
| > 501 | < 25 | – | Cc1ncsc1-c1ccc([C@H](C)NC(=O)[C@@H]2C[C@@H](O)CN2C(=O)[C@H](NC(=O)CN2CCN(CCCc3ccc(C(=O)N[C@H]4C(C)(C)[C@H](Oc5ccc(C#N)c(Cl)c5)C4(C)C)cc3)CC2)C2COC2)cc1 [Example 750, (2S,4R)-1-((R)-2-(4-(4-(3-(4-(((1r,3r)-3-(3-chloro-4-caynophenoxy)-2,2,4,4-tetramethylcyclobutyl)carbamoyl)phenyl)propyl)piperazin-1-yl)acetamido)-2-(oxetan-3-yl)acetyl)-4-hydroxy-N-((S)-1-(4-(4-methylthiazol-5-yl)phenyl)ethyl)pyrrolidine-2-carboxamide] | – |
| > 501 | < 25 | – | Cc1ncsc1-c1ccc([C@H](C)NC(=O)[C@@H]2C[C@@H](O)CN2C(=O)[C@@H](NC(=O)CN2CCN(CCCc3ccc(C(=O)N[C@H]4C(C)(C)[C@H](Oc5ccc(C#N)c(Cl)c5)C4(C)C)cc3)CC2)C2COC2)cc1 [Example 751, (2S,4R)-1-((S)-2-(2-(4-(3-(4-(((1r,3r)-3-(3-chloro-4-cyanophenoxy)-2,2,4,4-tetramethylcyclobutyl)carbamoyl)phenyl)propyl)piperazin-1-yl)acetamido)-2-(oxetan-3-yl)acetyl)-4-hydroxy-N-((S)-1-(4-(4-methylthiazol-5-yl)phenyl)ethyl)pyrrolidine-2-carboxamide] | – |
| < 50 | 51 to 70 | – | Cc1ncsc1-c1ccc(CNC(=O)[C@@H]2C[C@@H](O)CN2C(=O)[C@H](C(C)C)N2Cc3ccccc3C2=O)c(N2CCN(CCCc3ccc(C(=O)N[C@H]4C(C)(C)[C@H](Oc5ccc(C#N)c(Cl)c5)C4(C)C)cc3)CC2)c1 [Example 752, (2S,4R)-N-(2-(4-(3-(4-(((1r,3r)-3-(3-chloro-4-cyanophenoxy)-2,2,4,4-tetramethylcyclobutyl)carbamoyl)phenyl)propyl)piperazin-1-yl)-4-(4-methylthiazol-5-yl)benzyl)-4-hydroxy-1-((S)-3-methyl-2-(1-oxoisoindolin-2-yl)butanoyl)pyrrolidine-2-carboxamide] | – |
| < 50 | 51 to 70 | – | Cc1ncsc1-c1ccc(CNC(=O)[C@@H]2C[C@@H](O)CN2C(=O)[C@H](C(C)C)N2Cc3ccccc3C2=O)c(N2CCN(CCCc3ccc(C(=O)N[C@H]4C(C)(C)[C@H](Oc5ccc(C#N)c(C(F)(F)F)c5)C4(C)C)cc3)CC2)c1 [Example 753, (2S,4R)-N-(2-(4-(3-(4-(((1r,3r)-3-(4-cyano-3-(trifluoromethyl)phenoxy)-2,2,4,4-tetramethylcyclobutyl)carbamoyl)phenyl)propyl)piperazin-1-yl)-4-(4-methylthiazol-5-yl)benzyl)-4-hydroxy-1-((S)-3-methyl-2-(1-oxoisoindolin-2-yl)butanoyl)pyrrolidine-2-carboxamide] | – |

The next lines start with the compound.

| Structure (SMILES) | DC50 (VCaP cells, Table 36) [nM] | Dmax [1] [%] | Dmax [2] [%] | Dmax (read-out: VCaP Dmax (%)) [%] |
| --- | --- | --- | --- | --- |
| CC(C)[C@H](OCCN1CCN(c2ccc(C(=O)N[C@H]3C(C)(C)[C@H](Oc4ccc(C#N)c(Cl)c4)C3(C)C)cn2)CC1)C(=O)N[C@H](C(=O)N1C[C@H](O)C[C@H]1C(=O)NCc1ccc(Cl)cc1)C(C)(C)C [Example 742, N-((1r,3r)-3-(3-chloro-4-cyanophenoxy)-2,2,4,4-tetramethylcyclobutyl)-6-(4-(2-(((S)-1-(((S)-1-((2S,4R)-2-((4-chlorobenzyl)carbamoyl)-4-hydroxypyrrolidin-1-yl)-3,3-dimethyl-1-oxoutan-2-yl)amino)-3-methyl-1-oxobutan-2-yl)oxy)ethyl)piperazin-1-yl)nicotinamide] | > 501 | < 25 | – | – |
| CC(C)[C@@H](C(=O)N1C[C@H](O)C[C@H]1C(=O)NCc1ccc(Cl)cc1OCCN1CCN(c2ccc(C(=O)N[C@H]3C(C)(C)[C@H](Oc4ccc(C#N)c(Cl)c4)C3(C)C)cn2)CC1)N1Cc2ccccc2C1=O [Example 743, 6-(4-(2-(5-chloro-2-(((2S,4R)-4-hydroxy-1-((S)-3-methyl-2-(1-oxoisoindolin-2-yl)butanoyl)pyrrolidine-2-carboxamido)methyl)phenoxy)ethyl)piperazin-1-yl)-N-((1r,3r)-3-(3-chloro-4-cyanophenoxy)-2,2,4,4-tetramethylcyclobutyl) nicotinamide] | > 501 | < 25 | – | – |
| Cc1ncsc1-c1ccc([C@H](C)NC(=O)[C@@H]2C[C@@H](O)CN2C(=O)[C@@H](NC(=O)CN2CCN(CCC3(c4ccc(C(=O)N[C@H]5C(C)(C)[C@H](Oc6ccc(C#N)c(Cl)c6)C5(C)C)cc4)COC3)CC2)C(C)(C)C)cc1 [Example 744, (2S,4R)-1-((S)-2-(2-(4-(2-(3-(4-(((1r,3r)-3-(3-chloro-4-cyanophenoxy)-2,2,4,4-tetramethylcyclobutyl)carbamoyl)phenyl)oxetan-3-yl)ethyl)piperazin-1-yl)acetamido)-3,3-dimethylbutanoyl)-4-hydroxy-N-((S)-1-(4-(4-methylthiazol-5-yl)phenyl)ethyl)pyrrolidine-2-carboxamide] | > 501 | – | – | < 25 |
| Cc1ncsc1-c1ccc([C@H](C)NC(=O)[C@@H]2C[C@@H](O)CN2C(=O)[C@H](NC(=O)CN2CCN(CCCc3ccc(C(=O)N[C@H]4C(C)(C)[C@H](Oc5ccc(C#N)c(C#N)c5)C4(C)C)cc3)CC2)C2COC2)cc1 [Example 745, (2S,4R)-1-((R)-2-(2-(4-(3-(4-(((1r,3r)-3-(3,4-dicyanophenoxy)-2,2,4,4-tetramethylcyclobutyl)carbamoyl)phenyl)propyl)piperazin-1-yl)acetamido)-2-(oxetan-3-yl)acetyl)-4-hydroxy-N-((S)-1-(4-(4-methylthiazol-5-yl)phenyl)ethyl)pyrrolidine-2-carboxamide] | > 501 | – | < 25 | – |
| Cc1ncsc1-c1ccc([C@H](C)NC(=O)[C@@H]2C[C@@H](O)CN2C(=O)[C@@H](NC(=O)CN2CCN(CCCc3ccc(C(=O)N[C@H]4C(C)(C)[C@H](Oc5ccc(C#N)c(C#N)c5)C4(C)C)cc3)CC2)C2COC2)cc1 [Example 746, (2S,4R)-1-((S)-2-(2-(4-(3-(4-(((1r,3r)-3-(3,4-dicyanophenoxy)-2,2,4,4-tetramethylcyclobutyl)carbamoyl)phenyl)propyl)piperazin-1-yl)acetamido)-2-(oxetan-3-yl)acetyl)-4-hydroxy-N-((S)-1-(4-(4-methylthiazol-5-yl)phenyl)ethyl)pyrrolidine-2-carboxamide] | > 501 | – | < 25 | – |
| Cc1ncsc1-c1ccc([C@H](C)NC(=O)[C@@H]2C[C@@H](O)CN2C(=O)[C@@H](NC(=O)CCCc2ccc(C(=O)N[C@H]3C(C)(C)[C@H](Oc4ccc(C#N)c(Cl)c4)C3(C)C)cc2)C(C)(C)C)cc1 [Example 747, (2S,4R)-1-((S)-2-(4-(4-(((1r,3S)-3-(3-chloro-4-cyanophenoxy)-2,2,4,4-tetramethylcyclobutyl)carbamoyl)phenyl)butan-amido)-3,3-dimethylbutanoyl)-4-hydroxy-N-((S)-1-(4-(4-methylthiazol-5-yl)phenyl)ethyl)pyrrolidine-2-carboxamide] | > 501 | < 25 | – | – |
| Cc1ncsc1-c1ccc([C@H](C)NC(=O)[C@@H]2C[C@@H](O)CN2C(=O)C(NC(=O)CCCCCc2ccc(C(=O)N[C@H]3C(C)(C)[C@H](Oc4ccc(C#N)c(Cl)c4)C3(C)C)cc2)C(C)(C)C)cc1 (stereo partly drawn) [Example 748, (2S,4R)-1-((S)-2-(6-(4-(((1r,3r)-3-(3-chloro-4-cyanophenoxy)-2,2,4,4-tetramethylcyclobutyl)carbamoyl)phenyl)hexan-amido)-3,3-dimethylbutanoyl)-4-hydroxy-N-((S)-1-(4-(4-methylthiazol-5-yl)phenyl)ethyl)pyrrolidine-2-carboxamide] | < 50 | 26 to 50 | – | – |
